Among the data in patent US9133168B2, “Pyrimidine derivatives, preparation thereof, and pharmaceutical use thereof as akt(pkb) phosphorylation inhibitors” (SANOFI, priority 2010, dated 2015) are IC50 values, retold here.

In the first assay the test system is AKT protein phosphorylated on serine 473 (P-AKT-S473) in PC3 human prostate carcinoma cells. As to the kind of experiment: pAKT expression in PC3 human prostate carcinoma cells, MSD Multi-spot Biomarker detection (Test A). As to conditions: Homo sapiens, PC-3, PC3 cells, 1 to 2 h incubation, P-AKT-S473, absolute IC50, mean of two independent experiments. Type of assay: cell-based. An outline of the steps: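 Lysate pAKT-S473 measured by electrochemiluminescent sandwich immunoassay; inhibition versus cell-free background and DMSO-only wells, IC50 averaged over two experiments.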
Regarding `CC1(C)CN(C(=O)Cc2nc(N3CCOCC3)cc(=O)[nH]2)c2cccc(Cl)c21` [Example 5c, 2-[2-(4-chloro-3,3-dimethyl-2,3-dihydro-1H-indol-1-yl)-2-oxoethyl]-6-(morpholin-4-yl)pyrimidin-4(3H)-one], the IC50 was 14 nM.

The compound `O=C(Cc1nc(N2CCOCC2)cc(=O)[nH]1)N1CCc2c1cccc2C(F)(F)F` [Example 5d, 6-(morpholin-4-yl)-2-{2-oxo-2-[4-(trifluoromethyl)-2,3-dihydro-1H-indol-1-yl]ethyl}pyrimidin-4(3H)-one] yielded an IC50 of 9 nM.

The compound `C[C@@H]1Cc2ccccc2N1C(=O)Cc1nc(N2CCOCC2)cc(=S)n1C` [Example 5e, 1-((R)-2-methyl-2,3-dihydroindol-1-yl)-2-(1-methyl-4-morpholin-4-yl-6-thioxo-1,6-dihydropyrimidin-2-yl)ethanone] displayed an IC50 of 71 nM.

In turn, `COc1ccccc1-c1cccc2c1CCN2C(=O)Cc1nc(N2CCOCC2)cc(=O)[nH]1` [Example 6d, 2-{2-[4-(2-methoxyphenyl)-2,3-dihydro-1H-indol-1-yl]-2-oxoethyl}-6-(morpholin-4-yl)pyrimidin-4(3H)-one] had an IC50 of 32 nM.

The compound `Cn1c(CC(=O)N2CCc3c(F)cccc32)nc(N2CCOCC2)cc1=S` [Example 6e, 1-(4-fluoro-2,3-dihydroindol-1-yl)-2-(1-methyl-4-morpholin-4-yl-6-thioxo-1,6-dihydropyrimidin-2-yl)ethanone] displayed an IC50 of 31 nM.

`Cn1c(CC(=O)N2CC(C)(C)c3c(F)cccc32)nc(N2CCOCC2)cc1=O` [Example 7c, 2-[2-(4-fluoro-3,3-dimethyl-2,3-dihydro-1H-indol-1-yl)-2-oxoethyl]-3-methyl-6-(morpholin-4-yl)pyrimidin-4(3H)-one] displayed a half-inhibitory concentration (IC50) of 45 nM.

Take `CCCN1CCCC(c2cccc3c2CCN3C(=O)Cc2nc(N3CCOCC3)cc(=O)[nH]2)C1` (stereo not drawn) [Example 7d, 6-(morpholin-4-yl)-2-{2-oxo-2-[4-(1-propylpiperidin-3-yl)-2,3-dihydro-4H-indol-1-yl]ethyl}pyrimidin-4(3H)-one]: the concentration for half-maximal inhibition (IC50) was 102 nM.

The compound `Cn1c(CC(=O)N2CCc3c(Cl)cccc32)nc(N2CCOCC2)cc1=S` [Example 7e, 1-(4-chloro-2,3-dihydroindol-1-yl)-2-(1-methyl-4-morpholin-4-yl-6-thioxo-1,6-dihydropyrimidin-2-yl)ethanone] had an IC50 of 33 nM.

For `C[C@H]1Cc2ccccc2N1C(=O)Cc1nc(N2CCOCC2)c(F)c(=O)n1C` [Example 8a, 5-fluoro-3-methyl-2-{2-[(2S)-2-methyl-2,3-dihydro-1H-indol-1-yl]-2-oxoethyl}-6-(morpholin-4-yl)pyrimidin-4(3H)-one], the half-inhibitory concentration (IC50) is 107 nM.

Consider `CC1(C)CN(C(=O)Cc2nc(N3CCOCC3)cc(=O)[nH]2)c2cccc(F)c21` [Example 8c, 2-[2-(4-fluoro-3,3-dimethyl-2,3-dihydro-1H-indol-1-yl)-2-oxoethyl]-6-(morpholin-4-yl)pyrimidin-4(3H)-one], for which the 50% inhibitory concentration (IC50) amounted to 52 nM.

In turn, `Cn1c(CC(=O)N2CCc3c(OC(F)F)cccc32)nc(N2CCOCC2)cc1=O` [Example 8d, 2-{2-[4-(difluoromethoxy)-2,3-dihydro-1H-indol-1-yl]-2-oxoethyl}-3-methyl-6-(morpholin-4-yl)pyrimidin-4(3H)-one] displayed an IC50 of 60 nM.

In the case of `CC1Cc2c(ccc(F)c2F)N1C(=O)Cc1nc(N2CCOCC2)c(F)c(=S)[nH]1` (stereo not drawn) [Example 8e, 1-((+)-4,5-Difluoro-2-methyl-2,3-dihydroindol-1-yl)-2-(5-fluoro-4-morpholin-4-yl-6-thioxo-1,6-dihydropyrimidin-2-yl)ethanone], the IC50 was determined as 11 nM.

Regarding `C[C@@H]1Cc2ccccc2N1C(=O)Cc1nc(N2CCOCC2)c(F)c(=O)n1C` [Example 9a, 5-fluoro-3-methyl-2-{2-[(2R)-2-methyl-2,3-dihydro-1H-indol-1-yl]-2-oxoethyl}-6-(morpholin-4-yl)pyrimidin-4(3H)-one], the IC50 was determined as 120 nM.

Regarding `O=C(Cc1nc(N2CCOCC2)cc(=O)[nH]1)N1CCc2c(OC(F)F)cccc21` [Example 9d, 2-{2-[4-(difluoromethoxy)-2,3-dihydro-1H-indol-1-yl]-2-oxoethyl}-6-(morpholin-4-yl)pyrimidin-4(3H)-one], half-maximal inhibition (IC50) was put at 44 nM.

In turn, `CC1Cc2c(ccc(F)c2F)N1C(=S)Cc1nc(N2CCOCC2)c(F)c(=S)[nH]1` (stereo not drawn) [Example 9e, 2-[2-((+)-4,5-Difluoro-2-methyl-2,3-dihydroindol-1-yl)-2-thioxoethyl]-5-fluoro-6-morpholin-4-yl-3H-pyrimidine-4-thione] displayed an IC50 of 1 nM.

Compound `O=C(Cc1nc(N2CCOCC2)cc(=O)[nH]1)N1CCc2c(-c3ccncc3)cccc21` [Example 10d, 6-(morpholin-4-yl)-2-{2-oxo-2-[4-(pyridin-4-yl)-2,3-dihydro-1H-indol-1-yl]ethyl}pyrimidin-4(3H)-one] came in with an IC50 of 94 nM.

Consider `C[C@H]1Cc2ccccc2N1C(=O)Cc1nc(N2CCOCC2)c(F)c(=S)[nH]1` [Example 10e, 2-(5-fluoro-4-morpholin-4-yl-6-thioxo-1,6-dihydropyrimidin-2-yl)-1-((S)-2-methyl-2,3-dihydroindol-1-yl)ethanone], for which the IC50 is 221 nM.

`O=C(Cc1nc(N2CCOC3CCCC32)cc(=O)[nH]1)N1CCc2c(F)cccc21` (stereo not drawn) [Example 11b, 2-[2-(4-fluoro-2,3-dihydroindol-1-yl)-2-oxoethyl]-6-(hexahydrocyclopenta[1,4]oxazin-4-yl)-3H-pyrimidin-4-one]: the IC50 was found to be 12 nM.

Consider `CN1CCC2(CC1)CN(C(=O)Cc1nc(N3CCOCC3)cc(=O)[nH]1)c1ccccc12` [Example 11d, 2-[2-(1′-methylspiro[indole-3,4′-piperidin]-1(2H)-yl)-2-oxoethyl]-6-(morpholin-4-yl)pyrimidin-4(3H)-one], for which half-maximal inhibition (IC50) required 26 nM.

The compound `C[C@@H]1Cc2ccccc2N1C(=O)Cc1nc(N2CCOCC2)c(F)c(=S)[nH]1` [Example 11e, 2-(5-fluoro-4-morpholin-4-yl-6-thioxo-1,6-dihydropyrimidin-2-yl)-1-((R)-2-methyl-2,3-dihydroindol-1-yl)ethanone] returned an IC50 of 61 nM.

Compound `O=C(Cc1nc(-c2ccncc2)cc(=O)[nH]1)N1CCc2c(F)cccc21` [Example 12b, 2-[2-(4-fluoro-2,3-dihydroindol-1-yl)-2-oxoethyl]-6-pyridin-4-yl-3H-pyrimidin-4-one] showed an IC50 of 370 nM.

The compound `O=C(Cc1nc(N2CCOCC2)cc(=O)[nH]1)N1CCc2c(-c3ccccn3)cccc21` [Example 12d, 6-(morpholin-4-yl)-2-{2-oxo-2-[4-(pyridin-2-yl)-2,3-dihydro-1H-indol-1-yl]ethyl}pyrimidin-4(3H)-one] registered an IC50 of 66 nM.

As to `COc1cc(-c2cc(=O)[nH]c(CC(=O)N3CCc4c(F)cccc43)n2)ccn1` [Example 13b, 2-[2-(4-fluoro-2,3-dihydroindol-1-yl)-2-oxoethyl]-6-(2-methoxypyridin-4-yl)-3H-pyrimidin-4-one], the IC50 amounted to 3000 nM.

In turn, `O=C(Cc1nc(N2CCOCC2)cc(=O)[nH]1)N1CCc2c(-c3cccnc3)cccc21` [Example 13d, 6-(morpholin-4-yl)-2-{2-oxo-2-[4-(pyridin-3-yl)-2,3-dihydro-1H-indol-1-yl]ethyl}pyrimidin-4(3H)-one] displayed an IC50 of 53 nM.

The assay is the same for the next values; noted with them: PC3 cells, 1 to 2 h incubation, P-AKT-S473, absolute IC50, mean of two independent experiments.
The compound `CC1Cc2cc(F)ccc2N1C(=O)Cc1nc(N2CCOCC2)c(F)c(=O)[nH]1` (stereo not drawn) [Example 6a, 5-fluoro-2-[2-((+)-5-fluoro-2-methyl-2,3-dihydroindol-1-yl)-2-oxoethyl]-6-morpholin-4-yl-3H-pyrimidin-4-one] yielded an IC50 of 10 nM.

`O=C(Cc1nc(N2CCOC(CF)C2)cc(=O)[nH]1)N1CCc2c(F)cccc21` (stereo not drawn) [Example 6b, 2-[2-(4-fluoro-2,3-dihydroindol-1-yl)-2-oxoethyl]-6-(2-fluoromethylmorpholin-4-yl)-3H-pyrimidin-4-one] registered an IC50 of 58 nM.

As for `CC1Cc2c(O)cccc2N1C(=O)Cc1nc(N2CCOCC2)cc(=O)[nH]1` (stereo not drawn) [Example 6c, 2-[2-(4-hydroxy-2-methyl-2,3-dihydro-1H-indol-1-yl)-2-oxoethyl]-6-(morpholin-4-yl)pyrimidin-4(3H)-one], the IC50 turned out to be 24 nM.

`CC1Cc2cc(F)ccc2N1C(=O)Cc1nc(N2CCOCC2)c(F)c(=O)[nH]1` (stereo not drawn) [Example 7a, 5-fluoro-2-[2-((−)-5-fluoro-2-methyl-2,3-dihydroindol-1-yl)-2-oxoethyl]-6-morpholin-4-yl-3H-pyrimidin-4-one] yielded an IC50 of 3 nM.

`CC1CN(c2cc(=O)[nH]c(CC(=O)N3CCc4c(F)cccc43)n2)CCO1` (stereo not drawn) [Example 8b, 2-[2-(4-fluoro-2,3-dihydroindol-1-yl)-2-oxoethyl]-6-(2-methylmorpholin-4-yl)-3H-pyrimidin-4-one] registered an IC50 of 18 nM.

With `CC1Cc2c(F)cccc2N1C(=O)Cc1nc(N2CCOCC2)c(F)c(=O)[nH]1` (stereo not drawn) [Example 10a, 5-fluoro-2-[2-((+)-2-methyl-4-fluoro-2,3-dihydroindol-1-yl)-2-oxoethyl]-6-morpholin-4-yl-3H-pyrimidin-4-one], the half-maximal inhibitory concentration (IC50) worked out at 116 nM.

Compound `CC1Cc2c(F)cccc2N1C(=O)Cc1nc(N2CCOCC2)c(F)c(=O)[nH]1` (stereo not drawn) [Example 11a, 5-fluoro-2-[2-((−)-2-methyl-4-fluoro-2,3-dihydroindol-1-yl)-2-oxoethyl]-6-morpholin-4-yl-3H-pyrimidin-4-one] yielded a 50% inhibitory concentration (IC50) of 24 nM.

`CC1Cc2cc(F)c(F)cc2N1C(=O)Cc1nc(N2CCOCC2)c(F)c(=O)[nH]1` (stereo not drawn) [Example 12a, 2-[2-((+)-5,6-difluoro-2-methyl-2,3-dihydroindol-1-yl)-2-oxoethyl]-5-fluoro-6-morpholin-4-yl-3H-pyrimidin-4-one] yielded a concentration for half-maximal inhibition (IC50) of 16 nM.

Regarding `CC1Cc2cc(F)c(F)cc2N1C(=O)Cc1nc(N2CCOCC2)c(F)c(=O)[nH]1` (stereo not drawn) [Example 13a, 2-[2-((−)-5,6-difluoro-2-methyl-2,3-dihydroindol-1-yl)-2-oxoethyl]-5-fluoro-6-morpholin-4-yl-3H-pyrimidin-4-one], half-maximal inhibition (IC50) was put at 162 nM.
